Reference: the supplement of paper PMC10307832

Key:
Experiment in all cases: relative viability (nuclei count vs DMSO), 5 days (fraction); higher = more cells survive
Neratinib + Vorinostat = compound: CCOc1cc2ncc(C#N)c(Nc3ccc(OCc4ccccn4)c(Cl)c3)c2cc1NC(=O)/C=C/CN(C)C [Neratinib] + O=C(CCCCCCC(=O)Nc1ccccc1)NO [Vorinostat] (partner 1 µM)
How it was run: (§1)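 Cells from lung cancer lines were seeded into 1536-well plates and, one day later, dosed by pin tool. Treatments were either a single drug or a fixed dose of an anchor drug with five library-drug doses (not always all listed) in √10 steps. After 5 days, nuclei were stained in a one-step fixation (final 0.05% Triton X-100, 1% formaldehyde, 1 ug/ml Hoechst) and counted on 4× images, and relative viability is the treated-to-vehicle nuclei ratio, as the median of duplicate plates.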

Neratinib + Pemetrexed = compound: CCOc1cc2ncc(C#N)c(Nc3ccc(OCc4ccccn4)c(Cl)c3)c2cc1NC(=O)/C=C/CN(C)C [Neratinib] + Nc1nc2[nH]cc(CCc3ccc(C(=O)N[C@@H](CCC(=O)O)C(=O)O)cc3)c2c(=O)[nH]1 [Pemetrexed] (partner 0.2 µM)
How it was run: as §1

Neratinib + Dasatinib = compound: CCOc1cc2ncc(C#N)c(Nc3ccc(OCc4ccccn4)c(Cl)c3)c2cc1NC(=O)/C=C/CN(C)C [Neratinib] + Cc1nc(Nc2ncc(C(=O)Nc3c(C)cccc3Cl)s2)cc(N2CCN(CCO)CC2)n1 [Dasatinib] (partner 0.075 µM)
How it was run: as §1

Neratinib + Palbociclib = compound: CCOc1cc2ncc(C#N)c(Nc3ccc(OCc4ccccn4)c(Cl)c3)c2cc1NC(=O)/C=C/CN(C)C [Neratinib] + CC(=O)c1c(C)c2cnc(Nc3ccc(N4CCNCC4)cn3)nc2n(C2CCCC2)c1=O [Palbociclib] (partner 0.5 µM)
How it was run: as §1

Cell Line: NCI-H1915
- relative viability (Neratinib + Vorinostat; first compound 0.01 µM): 0.6
- relative viability (Neratinib + Vorinostat; first compound 0.03162 µM): 0.553
- relative viability (Neratinib + Vorinostat; first compound 0.1 µM): 0.507
- relative viability (Neratinib + Vorinostat; first compound 0.3162 µM): 0.439
- relative viability (Neratinib + Vorinostat; first compound 1 µM): 0.545
- relative viability (Neratinib + Pemetrexed; first compound 0.01 µM): 0.495
- relative viability (Neratinib + Pemetrexed; first compound 0.03162 µM): 0.495
- relative viability (Neratinib + Pemetrexed; first compound 0.1 µM): 0.44
- relative viability (Neratinib + Pemetrexed; first compound 0.3162 µM): 0.412
- relative viability (Neratinib + Pemetrexed; first compound 1 µM): 0.516
- relative viability (Neratinib + Dasatinib; first compound 0.01 µM): 0.384
- relative viability (Neratinib + Dasatinib; first compound 0.03162 µM): 0.339
- relative viability (Neratinib + Dasatinib; first compound 0.1 µM): 0.218
- relative viability (Neratinib + Dasatinib; first compound 0.3162 µM): 0.332
- relative viability (Neratinib + Dasatinib; first compound 1 µM): 0.287
- relative viability (Neratinib + Palbociclib; first compound 0.01 µM): 0.538
- relative viability (Neratinib + Palbociclib; first compound 0.03162 µM): 0.537
- relative viability (Neratinib + Palbociclib; first compound 0.1 µM): 0.504
- relative viability (Neratinib + Palbociclib; first compound 0.3162 µM): 0.528
- relative viability (Neratinib + Palbociclib; first compound 1 µM): 0.414

Cell Line: NCI-H1944
- relative viability (Neratinib + Vorinostat; first compound 0.01 µM): 0.657
- relative viability (Neratinib + Vorinostat; first compound 0.03162 µM): 0.544
- relative viability (Neratinib + Vorinostat; first compound 0.1 µM): 0.474
- relative viability (Neratinib + Vorinostat; first compound 0.3162 µM): 0.501
- relative viability (Neratinib + Vorinostat; first compound 1 µM): 0.456
- relative viability (Neratinib + Pemetrexed; first compound 0.01 µM): 0.642
- relative viability (Neratinib + Pemetrexed; first compound 0.03162 µM): 0.563
- relative viability (Neratinib + Pemetrexed; first compound 0.3162 µM): 0.555
- relative viability (Neratinib + Pemetrexed; first compound 1 µM): 0.439
- relative viability (Neratinib + Dasatinib; first compound 0.01 µM): 0.201
- relative viability (Neratinib + Dasatinib; first compound 0.03162 µM): 0.211
- relative viability (Neratinib + Dasatinib; first compound 0.1 µM): 0.193
- relative viability (Neratinib + Dasatinib; first compound 0.3162 µM): 0.205
- relative viability (Neratinib + Dasatinib; first compound 1 µM): 0.181
- relative viability (Neratinib + Palbociclib; first compound 0.01 µM): 0.365
- relative viability (Neratinib + Palbociclib; first compound 0.03162 µM): 0.32
- relative viability (Neratinib + Palbociclib; first compound 0.1 µM): 0.264
- relative viability (Neratinib + Palbociclib; first compound 0.3162 µM): 0.241
- relative viability (Neratinib + Palbociclib; first compound 1 µM): 0.247

Cell Line: NCI-H1975
- relative viability (Neratinib + Vorinostat; first compound 0.01 µM): 0.764
- relative viability (Neratinib + Vorinostat; first compound 0.03162 µM): 0.822
- relative viability (Neratinib + Vorinostat; first compound 0.1 µM): 0.723
- relative viability (Neratinib + Vorinostat; first compound 0.3162 µM): 0.354
- relative viability (Neratinib + Vorinostat; first compound 1 µM): 0.264
- relative viability (Neratinib + Pemetrexed; first compound 0.01 µM): 0.295
- relative viability (Neratinib + Pemetrexed; first compound 0.03162 µM): 0.336
- relative viability (Neratinib + Pemetrexed; first compound 0.1 µM): 0.284
- relative viability (Neratinib + Pemetrexed; first compound 0.3162 µM): 0.25
- relative viability (Neratinib + Pemetrexed; first compound 1 µM): 0.178
- relative viability (Neratinib + Dasatinib; first compound 0.01 µM): 0.443
- relative viability (Neratinib + Dasatinib; first compound 0.03162 µM): 0.505
- relative viability (Neratinib + Dasatinib; first compound 0.1 µM): 0.313
- relative viability (Neratinib + Dasatinib; first compound 0.3162 µM): 0.124
- relative viability (Neratinib + Dasatinib; first compound 1 µM): 0.146
- relative viability (Neratinib + Palbociclib; first compound 0.01 µM): 0.658
- relative viability (Neratinib + Palbociclib; first compound 0.03162 µM): 0.739
- relative viability (Neratinib + Palbociclib; first compound 0.1 µM): 0.522
- relative viability (Neratinib + Palbociclib; first compound 0.3162 µM): 0.337
- relative viability (Neratinib + Palbociclib; first compound 1 µM): 0.176

Cell Line: NCI-H1993
- relative viability (Neratinib + Vorinostat; first compound 0.01 µM): 1.07
- relative viability (Neratinib + Vorinostat; first compound 0.03162 µM): 0.795
- relative viability (Neratinib + Vorinostat; first compound 0.1 µM): 0.423
- relative viability (Neratinib + Vorinostat; first compound 0.3162 µM): 0.676
- relative viability (Neratinib + Vorinostat; first compound 1 µM): 0.574
- relative viability (Neratinib + Pemetrexed; first compound 0.01 µM): 0.398
- relative viability (Neratinib + Pemetrexed; first compound 0.03162 µM): 0.543
- relative viability (Neratinib + Pemetrexed; first compound 0.1 µM): 0.533
- relative viability (Neratinib + Pemetrexed; first compound 0.3162 µM): 0.564
- relative viability (Neratinib + Pemetrexed; first compound 1 µM): 0.486
- relative viability (Neratinib + Dasatinib; first compound 0.01 µM): 0.638
- relative viability (Neratinib + Dasatinib; first compound 0.03162 µM): 0.607
- relative viability (Neratinib + Dasatinib; first compound 0.1 µM): 0.558
- relative viability (Neratinib + Dasatinib; first compound 0.3162 µM): 0.589
- relative viability (Neratinib + Dasatinib; first compound 1 µM): 0.575
- relative viability (Neratinib + Palbociclib; first compound 0.01 µM): 0.768
- relative viability (Neratinib + Palbociclib; first compound 0.03162 µM): 0.578
- relative viability (Neratinib + Palbociclib; first compound 0.1 µM): 0.522
- relative viability (Neratinib + Palbociclib; first compound 0.3162 µM): 0.466
- relative viability (Neratinib + Palbociclib; first compound 1 µM): 0.568

Cell Line: NCI-H2009
- relative viability (Neratinib + Vorinostat; first compound 0.01 µM): 0.739
- relative viability (Neratinib + Vorinostat; first compound 0.03162 µM): 0.772
- relative viability (Neratinib + Vorinostat; first compound 0.1 µM): 0.777
- relative viability (Neratinib + Vorinostat; first compound 0.3162 µM): 0.754
- relative viability (Neratinib + Vorinostat; first compound 1 µM): 0.644
- relative viability (Neratinib + Pemetrexed; first compound 0.01 µM): 1.09
- relative viability (Neratinib + Pemetrexed; first compound 0.1 µM): 1.06
- relative viability (Neratinib + Pemetrexed; first compound 0.3162 µM): 1.06
- relative viability (Neratinib + Pemetrexed; first compound 1 µM): 1.01
- relative viability (Neratinib + Dasatinib; first compound 0.01 µM): 0.3
- relative viability (Neratinib + Dasatinib; first compound 0.03162 µM): 0.347
- relative viability (Neratinib + Dasatinib; first compound 0.1 µM): 0.301
- relative viability (Neratinib + Dasatinib; first compound 0.3162 µM): 0.292
- relative viability (Neratinib + Dasatinib; first compound 1 µM): 0.206
- relative viability (Neratinib + Palbociclib; first compound 0.01 µM): 0.176
- relative viability (Neratinib + Palbociclib; first compound 0.03162 µM): 0.266
- relative viability (Neratinib + Palbociclib; first compound 0.1 µM): 0.21
- relative viability (Neratinib + Palbociclib; first compound 0.3162 µM): 0.243
- relative viability (Neratinib + Palbociclib; first compound 1 µM): 0.208

Cell Line: NCI-H2023
- relative viability (Neratinib + Vorinostat; first compound 0.01 µM): 0.937
- relative viability (Neratinib + Vorinostat; first compound 0.03162 µM): 0.532
- relative viability (Neratinib + Vorinostat; first compound 0.1 µM): 0.495
- relative viability (Neratinib + Vorinostat; first compound 0.3162 µM): 0.602
- relative viability (Neratinib + Vorinostat; first compound 1 µM): 0.375
- relative viability (Neratinib + Pemetrexed; first compound 0.01 µM): 0.251
- relative viability (Neratinib + Pemetrexed; first compound 0.03162 µM): 0.221
- relative viability (Neratinib + Pemetrexed; first compound 0.1 µM): 0.21
- relative viability (Neratinib + Pemetrexed; first compound 0.3162 µM): 0.221
- relative viability (Neratinib + Pemetrexed; first compound 1 µM): 0.212
- relative viability (Neratinib + Dasatinib; first compound 0.01 µM): 0.576
- relative viability (Neratinib + Dasatinib; first compound 0.03162 µM): 0.562
- relative viability (Neratinib + Dasatinib; first compound 0.1 µM): 0.473
- relative viability (Neratinib + Dasatinib; first compound 0.3162 µM): 0.479
- relative viability (Neratinib + Dasatinib; first compound 1 µM): 0.42
- relative viability (Neratinib + Palbociclib; first compound 0.01 µM): 0.395
- relative viability (Neratinib + Palbociclib; first compound 0.03162 µM): 0.363
- relative viability (Neratinib + Palbociclib; first compound 0.1 µM): 0.308
- relative viability (Neratinib + Palbociclib; first compound 0.3162 µM): 0.322
- relative viability (Neratinib + Palbociclib; first compound 1 µM): 0.348

Cell Line: NCI-H2085
- relative viability (Neratinib + Vorinostat; first compound 0.01 µM): 0.825
- relative viability (Neratinib + Vorinostat; first compound 0.1 µM): 0.687
- relative viability (Neratinib + Vorinostat; first compound 0.3162 µM): 0.623
- relative viability (Neratinib + Vorinostat; first compound 1 µM): 0.696
- relative viability (Neratinib + Pemetrexed; first compound 0.01 µM): 0.962
- relative viability (Neratinib + Pemetrexed; first compound 0.03162 µM): 0.987
- relative viability (Neratinib + Pemetrexed; first compound 0.1 µM): 0.754
- relative viability (Neratinib + Pemetrexed; first compound 0.3162 µM): 0.655
- relative viability (Neratinib + Pemetrexed; first compound 1 µM): 0.71
- relative viability (Neratinib + Dasatinib; first compound 0.01 µM): 0.261
- relative viability (Neratinib + Dasatinib; first compound 0.03162 µM): 0.264
- relative viability (Neratinib + Dasatinib; first compound 0.1 µM): 0.254
- relative viability (Neratinib + Dasatinib; first compound 0.3162 µM): 0.21
- relative viability (Neratinib + Dasatinib; first compound 1 µM): 0.234
- relative viability (Neratinib + Palbociclib; first compound 0.01 µM): 0.468
- relative viability (Neratinib + Palbociclib; first compound 0.03162 µM): 0.456
- relative viability (Neratinib + Palbociclib; first compound 0.1 µM): 0.467
- relative viability (Neratinib + Palbociclib; first compound 0.3162 µM): 0.419
- relative viability (Neratinib + Palbociclib; first compound 1 µM): 0.382

Cell Line: NCI-H2087
- relative viability (Neratinib + Vorinostat; first compound 0.01 µM): 0.783
- relative viability (Neratinib + Vorinostat; first compound 0.03162 µM): 0.566
- relative viability (Neratinib + Vorinostat; first compound 0.1 µM): 0.538
- relative viability (Neratinib + Vorinostat; first compound 0.3162 µM): 0.711
- relative viability (Neratinib + Vorinostat; first compound 1 µM): 0.573
- relative viability (Neratinib + Pemetrexed; first compound 0.01 µM): 0.634
- relative viability (Neratinib + Pemetrexed; first compound 0.03162 µM): 0.74
- relative viability (Neratinib + Pemetrexed; first compound 0.1 µM): 0.655
- relative viability (Neratinib + Pemetrexed; first compound 0.3162 µM): 0.694
- relative viability (Neratinib + Pemetrexed; first compound 1 µM): 0.548
- relative viability (Neratinib + Dasatinib; first compound 0.01 µM): 0.936
- relative viability (Neratinib + Dasatinib; first compound 0.03162 µM): 0.888
- relative viability (Neratinib + Dasatinib; first compound 0.1 µM): 0.605
- relative viability (Neratinib + Dasatinib; first compound 0.3162 µM): 0.584
- relative viability (Neratinib + Dasatinib; first compound 1 µM): 0.373
- relative viability (Neratinib + Palbociclib; first compound 0.01 µM): 0.212
- relative viability (Neratinib + Palbociclib; first compound 0.03162 µM): 0.271
- relative viability (Neratinib + Palbociclib; first compound 0.1 µM): 0.217
- relative viability (Neratinib + Palbociclib; first compound 0.3162 µM): 0.182
- relative viability (Neratinib + Palbociclib; first compound 1 µM): 0.14
